Laboratory results taken from patent US20140221346A1, “THERAPEUTIC COMPOUNDS” (Gilead Sciences, Inc., priority 2013, published 2014).

Experiments:
[1] = Test B: Cytotoxicity Assay; format: cell-based; conditions: human, uninfected MT-4 cells, same protocol as Test A, CellTiter-Glo
Method: (§1) For the antiviral assay, 40 μL of 1× test concentration of 3-fold serially diluted compound in culture medium with 10% FBS was added to each well of a 384-well plate (10 concentrations) in quadruplicate. MT-4 cells were next mixed with HIV-IIIb at an m.o.i of 0.003 for 1 hour, after which time 35 μL of virus/cell mixture (2000 cells) was immediately added to each well containing 40 μL of diluted compound. The plates were then incubated at 37° C. for 5 days. After 5 days of incubation, 25 μl of 2× concentrated CellTiter-Glo™ Reagent (catalog #G7571, Promega Biosciences, Inc., Madison, Wis.) was added to each well containing MT-4 cells. Cell lysis was carried out by incubating at room temperature for 10 min and then chemiluminescence was read.
Compound cytotoxicity and the corresponding CC50 values was determined using the same protocol as described in the antiviral assay (Test A) except that uninfected cells were used.

[2] = tested on: HIV-IIIb; assay: Test A: Antiviral Assay in MT4 Cells; format: cell-based, HIV-1; conditions: Human immunodeficiency virus 1, IIIB, MT4, 120 h, read-out: % inhibition at 3 μM
Method: as §1

CN(C)c1ncc(-c2ccc(F)c(C(N)=O)c2)c([C@H](Cc2cc(F)cc(F)c2)NC(=O)Cn2nc(C(F)F)c3c2C(F)(F)CCC3(F)F)n1 [Compound 18B, (S)-5-(4-(1-(2-(3-(difluoromethyl)-4,4,7,7-tetrafluoro-4,5,6,7-tetrahydro-1H-indazol-1-yl)acetamido)-2-(3,5-difluorophenyl)ethyl)-2-(dimethylamino)pyrimidin-5-yl)-2-fluorobenzamide]
CC50 at 5 days [1]: 38.9 µM
inhibition at 3 µM [2]: 16%

NC(=O)c1cc(-c2cnc(NCC3CC3)nc2[C@H](Cc2cc(F)cc(F)c2)NC(=O)Cn2nc(C(F)F)c3c2C(F)(F)CCC3(F)F)ccc1F [Compound 13B, (S)-5-(2-((cyclopropylmethyl)amino)-4-(1-(2-(3-(difluoromethyl)-4,4,7,7-tetrafluoro-4,5,6,7-tetrahydro-1H-indazol-1-yl)acetamido)-2-(3,5-difluorophenyl)ethyl)pyrimidin-5-yl)-2-fluorobenzamide]
CC50 at 5 days [1]: 7.72 µM
inhibition at 3 µM [2]: 42%

Nc1ccc(-c2cccc(CO)c2)c(C(Cc2cc(F)cc(F)c2)NC(=O)Cc2c[nH]c3ccc(F)cc23)n1 (stereo not shown) [Compound 6, N-(1-(6-amino-3-(3-(hydroxymethyl)phenyl)pyridin-2-yl)-2-(3,5-difluorophenyl)ethyl)-2-(5-fluoro-1H-indol-3-yl)acetamide]
CC50 at 5 days [1]: 14.4 µM
inhibition at 3 µM [2]: 59%

NC(=O)c1cc(-c2cnc(NCCN3CCNC3=O)nc2[C@H](Cc2cc(F)cc(F)c2)NC(=O)Cn2nc(C(F)F)c3c2C(F)(F)CCC3(F)F)ccc1F [Compound 22B, (S)-5-(4-(1-(2-(3-(difluoromethyl)-4,4,7,7-tetrafluoro-4,5,6,7-tetrahydro-1H-indazol-1-yl)acetamido)-2-(3,5-difluorophenyl)ethyl)-2-((2-(2-oxoimidazolidin-1-yl)ethyl)amino)pyrimidin-5-yl)-2-fluorobenzamide]
CC50 at 5 days [1]: 34.1 µM
inhibition at 3 µM [2]: 93%

Nc1ccc(-c2cccc(OCC(F)(F)F)c2)c(C(Cc2cc(F)cc(F)c2)NC(=O)Cc2c[nH]c3ccc(F)cc23)n1 (stereo not shown) [Compound 8, N-(1-(6-amino-3-(3-(2,2,2-trifluoroethoxy)phenyl)pyridin-2-yl)-2-(3,5-difluorophenyl)ethyl)-2-(5-fluoro-1H-indol-3-yl)acetamide]
CC50 at 5 days [1]: 11.7 µM
inhibition at 3 µM [2]: 50%

NC(=O)c1cc(-c2cnc(N3CC4(COC4)C3)nc2[C@H](Cc2cc(F)cc(F)c2)NC(=O)Cn2nc(C(F)F)c3c2C(F)(F)CCC3(F)F)ccc1F [Compound 15B, (S)-5-(4-(1-(2-(3-(difluoromethyl)-4,4,7,7-tetrafluoro-4,5,6,7-tetrahydro-1H-indazol-1-yl)acetamido)-2-(3,5-difluorophenyl)ethyl)-2-(2-Oxa-6-azaspiro[3.3]heptan-6-yl)pyrimidin-5-yl)-2-fluorobenzamide]
CC50 at 5 days [1]: 36.3 µM
inhibition at 3 µM [2]: 70%

NC(=O)c1cc(-c2cnc(NCCN3CCOCC3)nc2[C@H](Cc2cc(F)cc(F)c2)NC(=O)Cn2nc(C(F)F)c3c2C(F)(F)CCC3(F)F)ccc1F [Compound 28, (S)-5-(4-(1-(2-(3-(difluoromethyl)-4,4,7,7-tetrafluoro-4,5,6,7-tetrahydro-1H-indazol-1-yl)acetamido)-2-(3,5-difluorophenyl)ethyl)-2-((2-morpholinoethyl)amino)pyrimidin-5-yl)-2-fluorobenzamide]
CC50 at 5 days [1]: 14.1 µM
inhibition at 3 µM [2]: 81%

COCCOCCNc1ncc(-c2ccc(F)c(C(N)=O)c2)c([C@H](Cc2cc(F)cc(F)c2)NC(=O)Cn2nc(C(F)F)c3c2C(F)(F)CCC3(F)F)n1 [Compound 17B, (S)-5-(4-(1-(2-(3-(difluoromethyl)-4,4,7,7-tetrafluoro-4,5,6,7-tetrahydro-1H-indazol-1-yl)acetamido)-2-(3,5-difluorophenyl)ethyl)-2-((2-(2-methoxyethoxy)ethyl)amino)pyrimidin-5-yl)-2-fluorobenzamide]
CC50 at 5 days [1]: 48.8 µM
inhibition at 3 µM [2]: 83%

Nc1ccc(-c2ccc(Cl)cc2)c(C(Cc2cc(F)cc(F)c2)NC(=O)Cc2c[nH]c3ccc(F)cc23)n1 (stereo not shown) [Compound 3, N-(1-(6-amino-3-(4-chlorophenyl)pyridin-2-yl)-2-(3,5-difluorophenyl)ethyl)-2-(5-fluoro-1H-indol-3-yl)acetamide]
CC50 at 5 days [1]: 9.34 µM
inhibition at 3 µM [2]: 87%

Nc1ccc(-c2cccc(S(N)(=O)=O)c2)c(C(Cc2cc(F)cc(F)c2)NC(=O)Cc2c[nH]c3ccc(F)cc23)n1 (stereo not shown) [Compound 5, N-(1-(6-amino-3-(3-sulfamoylphenyl)pyridin-2-yl)-2-(3,5-difluorophenyl)ethyl)-2-(5-fluoro-1H-indol-3-yl)acetamide]
CC50 at 5 days [1]: 28.7 µM
inhibition at 3 µM [2]: 87%

NC(=O)c1cccc(-c2ccc(N)nc2C(Cc2cc(F)cc(F)c2)NC(=O)Cc2c[nH]c3ccc(F)cc23)c1 (stereo not shown) [Compound 4, 3-(6-amino-2-(2-(3,5-difluorophenyl)-1-(2-(5-fluoro-1H-indol-3-yl)acetamido)ethyl)pyridin-3-yl)benzamide]
CC50 at 5 days [1]: 13.1 µM
inhibition at 3 µM [2]: 94%

Nc1ccc(-c2cccc(F)c2)c(C(Cc2cc(F)cc(F)c2)NC(=O)Cc2c[nH]c3ccc(F)cc23)n1 (stereo not shown) [Compound 9, N-(1-(6-amino-3-(3-fluorophenyl)pyridin-2-yl)-2-(3,5-difluorophenyl)ethyl)-2-(5-fluoro-1H-indol-3-yl)acetamide]
CC50 at 5 days [1]: 17.5 µM
inhibition at 3 µM [2]: 41%

NC(=O)c1cc(-c2cnc(NCCO)nc2[C@H](Cc2cc(F)cc(F)c2)NC(=O)Cn2nc(C(F)F)c3c2C(F)(F)CCC3(F)F)ccc1F [Compound 26, (S)-5-(4-(1-(2-(3-(difluoromethyl)-4,4,7,7-tetrafluoro-4,5,6,7-tetrahydro-1H-indazol-1-yl)acetamido)-2-(3,5-difluorophenyl)ethyl)-2-((2-hydroxyethyl)amino)pyrimidin-5-yl)-2-fluorobenzamide]
CC50 at 5 days [1]: 19.9 µM
inhibition at 3 µM [2]: 86%

CN(C)CCNc1ncc(-c2ccc(F)c(C(N)=O)c2)c([C@H](Cc2cc(F)cc(F)c2)NC(=O)Cn2nc(C(F)F)c3c2C(F)(F)CCC3(F)F)n1 [Compound 16B, (S)-5-(4-(1-(2-(3-(difluoromethyl)-4,4,7,7-tetrafluoro-4,5,6,7-tetrahydro-1H-indazol-1-yl)acetamido)-2-(3,5-difluorophenyl)ethyl)-2-((2-(dimethylamino)ethyl)amino)pyrimidin-5-yl)-2-fluorobenzamide]
CC50 at 5 days [1]: 15.4 µM
inhibition at 3 µM [2]: 41%

NC(=O)c1cc(-c2ccc(N)nc2[C@H](Cc2cc(F)cc(F)c2)NC(=O)Cc2c[nH]c3ccc(F)cc23)ccc1F [Compound 1H, (S)-5-(6-amino-2-(2-(3,5-difluorophenyl)-1-(2-(5-fluoro-1H-indol-3-yl)acetamido)ethyl)pyridin-3-yl)-2-fluorobenzamide]
CC50 at 5 days [1]: 22.1 µM
inhibition at 3 µM [2]: 98%

CC(=O)Oc1ccc(-c2ccc(F)c(C(N)=O)c2)c([C@H](Cc2cc(F)cc(F)c2)NC(=O)Cn2nc(C(F)F)c3c2C(F)(F)CCC3(F)F)n1 [Compound 20B, (S)-5-(3-carbamoyl-4-fluorophenyl)-6-(1-(2-(3-(difluoromethyl)-4,4,7,7-tetrafluoro-4,5,6,7-tetrahydro-1H-indazol-1-yl)acetamido)-2-(3,5-difluorophenyl)ethyl)pyridin-2-yl acetate]
CC50 at 5 days [1]: > 53.2 µM

COCCNc1ncc(-c2ccc(F)c(C(N)=O)c2)c([C@@H](Cc2cc(F)cc(F)c2)NC(=O)Cn2nc(C(F)(F)F)c3c2CCCC3)n1 [Compound 11J, (R)-5-(4-(2-(3,5-difluorophenyl)-1-(2-(3-(trifluoromethyl)-4,5,6,7-tetrahydro-1H-indazol-1-yl)acetamido)ethyl)-2-((2-methoxyethyl)amino)pyrimidin-5-yl)-2-fluorobenzamide]
CC50 at 5 days [1]: 16.3 µM
inhibition at 3 µM [2]: 0%

Nc1ccc(-c2ccc(Oc3ccccc3)cc2)c(C(Cc2cc(F)cc(F)c2)NC(=O)Cc2c[nH]c3ccc(F)cc23)n1 (stereo not shown) [Compound 7, N-(1-(6-amino-3-(4-phenoxyphenyl)pyridin-2-yl)-2-(3,5-difluorophenyl)ethyl)-2-(5-fluoro-1H-indol-3-yl)acetamide]
CC50 at 5 days [1]: 11.5 µM
inhibition at 3 µM [2]: 37%

NC(=O)c1cc(-c2cnc(NCCN3CCCC3=O)nc2[C@H](Cc2cc(F)cc(F)c2)NC(=O)Cn2nc(C(F)F)c3c2C(F)(F)CCC3(F)F)ccc1F [Compound 24, (S)-5-(4-(1-(2-(3-(difluoromethyl)-4,4,7,7-tetrafluoro-4,5,6,7-tetrahydro-1H-indazol-1-yl)acetamido)-2-(3,5-difluorophenyl)ethyl)-2-((2-(2-oxopyrrolidin-1-yl)ethyl)amino)pyrimidin-5-yl)-2-fluorobenzamide]
CC50 at 5 days [1]: 37.2 µM
inhibition at 3 µM [2]: 79%

COCCNc1ncc(-c2ccc(F)c(C(N)=O)c2)c([C@H](Cc2cc(F)cc(F)c2)NC(=O)Cn2nc(C(F)F)c3c2C(F)(F)CCC3(F)F)n1 [Compound 12E, (S)-5-(4-(1-(2-(3-(difluoromethyl)-4,4,7,7-tetrafluoro-4,5,6,7-tetrahydro-1H-indazol-1-yl)acetamido)-2-(3,5-difluorophenyl)ethyl)-2-((2-methoxyethyl)amino)pyrimidin-5-yl)-2-fluorobenzamide]
CC50 at 5 days [1]: 18.2 µM
inhibition at 3 µM [2]: 86%

NC(=O)c1cc(-c2cnc(NCCN3CCCC3)nc2[C@H](Cc2cc(F)cc(F)c2)NC(=O)Cn2nc(C(F)F)c3c2C(F)(F)CCC3(F)F)ccc1F [Compound 27]
CC50 at 5 days [1]: 3.5 µM
